Reference: US12564641B2 (EISAI R&D MANAGEMENT CO., LTD., priority 2019, dated 2026)
Read-outs that look alike come from different tables or passages of the source.

Columns and labels:
human NSCLC PDX LXFL-529 = assay: Human NSCLC PDX model LXFL-529
Source text: Animals: Female NMRI nu/nu mice, 4 to 6 weeks of age.
Xenotransplantation: LXFL-529 established growing tumor (T3N1M0) from a primary non-small cell lung adenocarcinoma human patient.
Experimental procedure: Animals were monitored until the tumor implants reached the study volume criteria of 50-250 mm^3 (e.g., 80-200 mm^3) in a sufficient number of animals. […] The process of the assignment to groups (enrollment, stratified randomization) may also be referred to as randomization. The day of randomization was designated as day 0 of the experiment.
Tumors were measured and mice were weighed twice a week during the experimental period. The first day of dosing was day 1, one day after randomization (day 0).

[1] = test system: human mesothelioma PDX Meso7212; assay: Human mesothelioma PDX model Meso7212 (Example 3)
Method: NMRI nu/nu female mice (Janvier Labs, 5-6 weeks) were acclimated for at least 4 days upon arrival prior to inoculation. Animals was housed 3-5 mice per ventilated cage with sterilized food pellets and water bottle available ad lib. Animals were ear marked and weighed prior to study initiation.
Donor tumor tissue was cut into 2×2 mm fragments and placed in a sterile Petri dish covered with 0.9% saline. In parallel, the receptor animals were subcutaneously treated with the analgesic Metacam® (2 mg/kg) and then anaesthetized by a single intravenous injection (0.15 mL/mouse) with Etomidat-Lipuro® (12 mg/kg). A superficial vertical incision in the skin of 5-8 mm on the left flank was performed. The tip of a surgical scissor was inserted into the incision, directly over the flank, and was used to form a pocket in the subcutaneous space. One tumor fragment per mouse was implanted into the pocket using surgical tweezers. The incision was closed with a metal clip and the animals were placed back into a clean cage.
During tumor propagation, tumor diameters were measured using a digital caliper (Mitutoyo). Animals were randomly assigned into experimental groups according to their tumor volume (inclusion criteria for tumor volume, 0.1-0.3 cm^3). Tumor volumes and body weights were recorded twice weekly.
The administration volume was 10 mL/kg for intravenous injections throughout all experimental groups.
Descriptive statistics were performed on the data for tumor volume and body weight. Tumor volumes of animals from each treatment group were compared with the control group by using a repeated-measures two-way ANOVA, followed by a Bonferroni post-test. Additionally, the comparison of tumor growth of animals within each group was also performed with the same statistical analysis.

A431 cells = assay: In vitro cytotoxicity analysis (Crystal Violet), A431; conditions: Homo sapiens, A-431, read-out: Cell based Cytotoxicity assay, EC50 (nM) A431-6 hr; treated with ADC for 6 hours then washed off
Method: (§1) Plates were read at 570 nm. Data was analyzed using GraphPad Prism 6.
All ADCs were purified and characterized using SEC-HPLC for aggregation analysis, HIC-HPLC for DAR analysis, and cell-based assay with A431-A3 (MSLN^hi), A431 (MSLN^lo), and OVCAR3 (MSLN^hi) cell lines.

MSLN-positive cell lines = assay: In vitro cytotoxicity (IC50, Crystal Violet) on MSLN-positive cell lines (Example 11)
Method: Cytotoxicity: Cells were sub-cultured and seeded at 5,000 cells/well in complete growth medium in 96-well tissue culture plates, and incubated at 37° C., 5% CO2 overnight (16 hours). Test reagents were serially diluted 1:3 in 2 mL deep-well dilution plates, starting at 200 nM (10 dilutions total). Diluted samples (100 μL) were added to the cell plates (starting concentration of test samples at 100 nM). Plates were incubated at 37° C. 5% CO2 for an additional 5 days. Medium was then discarded, and plates were washed once with 200 μL DPBS, stained with 50 μL of 0.2% Crystal Violet solution at room temperature for 15 min, and then washed extensively with tap water. Plates were air-dried, and Crystal Violet was dissolved with 200 μL of 1% SDS solution. Plates were read at 570 nm. Data was analyzed for IC50 determination using GraphPad Prism 6.

HEC-251 cells = assay: In vitro cytotoxicity analysis (Crystal Violet), HEC-251; type: cell-based; conditions: Homo sapiens
Method: as §1

[2] = test system: A3 (A431 stably transfected with human mesothelin) cells; assay: In vitro cytotoxicity analysis (Crystal Violet), A3; type: cell-based
Method: as §1
Fifteen anti-mesothelin antibodies were sub-cloned, scale-up expressed and purified, and conjugated using maleimide-VCP-eribulin as payload at the Cys80 position. All ADCs were purified and characterized using SEC-HPLC for aggregation analysis, HIC-HPLC for DAR analysis, and cell-based assay with A431-A3 (MSLN^hi), A431 (MSLN^lo), and OVCAR3 (MSLN^hi) cell lines. […] Based on the characterization data below, six antibodies (bolded) were selected for humanization.

In the case of C=C1C[C@@H]2CC[C@@]34C[C@H]5O[C@H]6[C@@H](O3)[C@H]3O[C@H](CC[C@@H]3O[C@H]6[C@H]5O4)CC(=O)C[C@@H]3[C@@H](OC)[C@@H](C[C@H](O)CN)O[C@H]3C[C@H]3O[C@@H](CC[C@@H]1O2)C[C@@H](C)C3=C [Eribulin, eribulin, reference compound], the anti-tumor efficacy (human NSCLC PDX LXFL-529; eribulin single dose of 3.2 mg/kg (mouse MTD) i.v.) is reported as “showed anti-tumor efficacy”, the tolerability / bodyweight (human NSCLC PDX LXFL-529; mouse, in vivo, iv, 3.2 mg/kg) is reported as “slight and transient bodyweight loss” and the anti-tumor effect ([1]; Meso7212 (MV15369), eribulin alone 0.2 mg/kg (equivalent molar amount)) is reported as “limited anti-tumor effects”. The body weight change ([1]; Meso7212 (MV16071), eribulin 0.3 mg/kg) was “No body weight loss”, the anti-tumor effect ([1]; Meso7212 (MV16071), eribulin alone 0.3 mg/kg (equivalent molar amount)) was “limited or no anti-tumor effects” and the EC50 (A431 cells) was 2.86 nM. For the same molecule, the IC50 (MSLN-positive cell lines; Homo sapiens, NCI-H292, read-out: In vitro cell based potency, IC50) was 0.11 nM, the “% Max Killing” value (MSLN-positive cell lines; NCI-H292 cells (MSLN MFI 108.6)) was 85.37% and the IC50 (MSLN-positive cell lines; NCI-H1568, read-out: In vitro cell based potency, IC50) was 0.14 nM. The “% Max Killing” value (MSLN-positive cell lines; NCI-H1568/MSLN cells (MSLN MFI 4474.00)) was 74.39%, the “% Max Killing” value (MSLN-positive cell lines; OVCAR3-A1 cells (MSLN MFI 220.0)) was 99.31% and the IC50 (MSLN-positive cell lines; read-out: In vitro cell based potency, IC50) was 0.02 nM. For the same molecule, the EC50 (HEC-251 cells; HEC-251, 120 h, Table 18, 5 days, read-out: Cell-Based Cytotoxicity Assay, EC50 (nM) HEC-251) was 0.2 nM, the EC50 (HEC-251 cells; HEC-251, Table 19, payloads, read-out: Cell-Based Cytotoxicity Assay EC50 (nM) HEC-251) was 0.2 nM and the EC50 ([2]; A-431, 120 h, Table 18, 5 days, read-out: Cell-Based Cytotoxicity Assay, EC50 (nM) A3) was 1.03 nM. The EC50 ([2]; A-431, Table 19, payloads, read-out: Cell-Based Cytotoxicity Assay EC50 (nM) A3) was 1.03 nM, the EC50 ([2]; A-431, read-out: Cell based Cytotoxicity assay, EC50 (nM) A3-6 hr, treated with ADC for 6 hours then washed off) was 4.08 nM and the EC50 ([2]; A-431, read-out: Cell based Cytotoxicity assay, EC50 (nM) A3-48 hr, treated for 48 hours) was 1.09 nM.
